Source: patent publication US20250270170A1, “2,3-DIMETHOXY-5-METHYL-1,4-BENZOQUINONE ALKYL ALCOHOL DERIVATIVE AND USE THEREOF” (BEIJING ANJIANXI BIO-MEDICAL TECHNOLOGY CO., LTD., priority 2021, published 2025)
Values joined by “and” are separate entries in the source; they are usually repeats but may differ in a detail not shown here. Equal values may be shown once. “Also recorded” adds a separate entry of the source.

Columns and labels:
Format in all cases: in vivo, C57BL/6J mice
[1] = Example 11: body weight in cisplatin-induced acute kidney damage model; conditions: Amifostine group
Procedure: (§1) 42 male C57BL/6J mice (age: 6 to 8 weeks, body weight 18-20 g, certificate number: 11400700238365) were purchased from Si Pei Fu (Beijing) Biotechnology Co., Ltd., and raised in an SPF-grade animal room of the Institute of Materia Medica, Chinese Academy of Medical Sciences, at a temperature of 20 to 25° C., a relative humidity of 40% to 70%, and a cycle of 12 hours of light and 12 hours of dark. The animals had free access to water and food. After 3 days of normal feeding, mice with good physical conditions after the veterinary examination were selected for this assay. Before grouping, a marker was used to mark on the base of the animals' tail. After grouping, each animal was marked with an ear cutout (7 mice in each group).
(§2) Assay animals: 42 7-week-old male C57 mice were used for animal testing after an adaptive feeding.
(§3) Group 1: blank control group;
(§4) The preparation of the R01 formulation administration test solution was the same as that in Example 5: an appropriate amount of the R01 formulation was weighed according to the three dosages set in the assay, respectively, and an appropriate volume of 0.5% CMC-Na aqueous solution was added. The mixture was vortexed and sonicated until mixed evenly, to give the administration test solutions with concentrations of […], respectively, which were ready for use.
(§5) Animal testing period: 7 days (excluding adaptive feeding), hereinafter referred to as: D1-D7.
(§6) 1. The first group was a solvent control group: N=7, all mice were males (the same below); • a) 0.5% solution of sodium carboxymethyl cellulose was gavagely administered from D1 to D6 (twice a day for each animal, with an interval of 8 hours between the morning and the afternoon). • b) Physiological saline was intraperitoneally injected in one-time on D4. • c) On D7, blood was collected from the orbit for euthanasia (300 ul of serum was extracted), the left kidney was fixed in formaldehyde, and the right kidney was preserved in liquid nitrogen (WB study may be carried out).
(§7) 3) Each animal was weighed before euthanasia, and the weight was recorded. Two kidneys were weighed as soon as possible after euthanasia, and the weight was recorded. Then, the two kidneys were quickly fixed or cryopreserved, and the kidney coefficient of the mouse was calculated (kidney weight/mouse weight).
(§8) The body weight of the animals when being grouped for administration in each group was recorded. The body weight and the kidney weight at the end of the assay were also recorded, and the kidney coefficient was calculated. The creatinine and urea nitrogen values in the blood samples sent for testing were recorded. The kidneys were stained with HE and PAS, and the slides were scanned. A report was issued after the pathological analysis.
(§9) The assay data were calculated and processed statistically using Microsoft Office Excel 2007 software. Unless otherwise specified, the data were expressed as mean±standard error (Mean±SE), and t-test was used for comparison between two groups.

[2] = test system: cisplatin-induced acute kidney damage in mice; test: Example 11: kidney weight and kidney coefficient in cisplatin-induced acute kidney damage model
Procedure: as §1, §2, §3, §4, §5, §6, §7, §8, §9

[3] = test system: cisplatin-induced acute kidney damage in mice; test: Example 11: serum creatinine (Cre) in cisplatin-induced acute kidney damage model
Procedure: as §1, §2, §3, §4, §5, §6
(§10) 1) The concentrations of urea nitrogen and creatinine in peripheral blood serum were tested.
as §8, §9

[4] = test system: cisplatin-induced acute kidney damage in mice; test: Example 11: serum urea nitrogen (Bun) in cisplatin-induced acute kidney damage model
Procedure: as §1, §2, §3, §4, §5, §6, §10, §8, §9

[5] = test system: cisplatin-induced acute kidney damage in mice; test: Example 11: renal pathology (HE, PAS) and pathological scoring; conditions: cisplatin 10 mg/kg alone (model) or with amifostine 50 mg/kg i.p. half an hour before; trihydrate
Procedure: as §1, §2, §3, §4, §5
1. […]
as §8, with “The kidneys were stained with HE and PAS, and the slides were scanned. A report was issued after the pathological analysis.” left out

[6] = group mean, cisplatin model, Amifostine group
[7] = individual animals No. 1-7, cisplatin model, Amifostine group, trihydrate

NCCCNCCSP(=O)(O)O [amifostine, Amifostine trihydrate, reference compound]
Body weight, Before x- after x ([1]; difference of group means, cisplatin model): 4.1 g | Body weight before cisplatin modeling, Before x (mean) ([1]; group mean): 20.9 g | Body weight after the assay, After x (mean) ([1]; group mean, cisplatin model): 16.8 g | Body weight before cisplatin modeling ([1]; individual animals No. 1-7, trihydrate): 20.2 g and 20.6 g (2×) and 20.4 g and 20.5 g and 21.8 g and 22.4 g | Body weight after the assay ([1]; individual animals No. 1-7, cisplatin model, trihydrate): 18 g and 16.7 g and 16.8 g and 17.1 g and 16.3 g and 15.8 g and 17.2 g | Kidney coefficient (kidney weight/body weight), x (mean) [2, 6]: 0.014 | Kidney weight after the assay, x (mean) [2, 6]: 0.224 g | Kidney coefficient (kidney weight/body weight) [2, 7]: 0.014 (3×) and 0.015 (2×) and 0.013 (2×) | Kidney weight after the assay [2, 7]: 0.223 g and 0.249 g and 0.202 g and 0.227 g and 0.220 g and 0.205 g and 0.241 g | Kidney coefficient (kidney weight/body weight) ([2]; with cisplatin 10 mg/kg, amifostine 50 mg/kg i.p., R01 6, 18, 36 mg/kg bid): equivalent to that of the blank control group | serum creatinine value ([3]; cisplatin 10 mg/kg alone (vs blank, P<0.01) or with amifostine 50 mg/kg i.p. / R01 6, 18, 36 mg/kg bid): equivalent to that of the blank control group | Serum creatinine (Cre) level after the assay, x (mean) [3, 6]: 16.1 mg/dL | Serum creatinine (Cre) level after the assay [3, 7]: 9 mg/dl and 19 mg/dl and 14 mg/dl and 18 mg/dl (3×) and 17 mg/dl | serum urea nitrogen value ([4]; cisplatin 10 mg/kg alone (vs blank, P<0.05) or with amifostine 50 mg/kg i.p. (P<0.01)): significantly lower than that of the model group | Urea nitrogen (Bun) level after the assay, x (mean) [4, 6]: 8.1 mg/dL | Urea nitrogen (Bun) level after the assay [4, 7]: 10.92 mg/dL and 8.76 mg/dL and 6.62 mg/dL and 7.23 mg/dL and 7.62 mg/dL and 8.78 mg/dL and 6.47 mg/dL | pathological damage of kidneys [5]: slight renal tubular damage and blurred renal tubular epithelial edges; also recorded: significantly reduced
